Reference: US8026278B2, “Inhibitors of pyruvate kinase as therapeutic agents for cancer” (priority 2005, dated 2011)

Legend:
[1] = molecular target: T1, Pyruvate kinase isolated from rabbit muscle (Oryctolagus cuniculus, UniProt P11974); experiment: Inhibition of pyruvate kinase (indirect assay quantifying ADP production); type: biochemical
T1 construct: Pyruvate kinase isolated from rabbit muscle; purchased Sigma-Aldrich; host or cells: rabbit muscle (tissue-derived enzyme)
Method: The compounds E-3-chlorophosphoenolpyruvate ditriethyl-ammonium salt (ECPDAT), Z-3-chlorophosphoenolpyruvate tritriethyl-ammonium salt (CPTP), phosphoenol-3-bromo-pyruvic acid mono-cyclohexyl ammonium salt (PBPA), 2-bromooxoethylphosphonic acid mono-cyclohexyl-ammonium salt (BOEPA) and 3-bromopyruvic acid (BrPyA) were tested for their efficiency at inhibiting pyruvate kinase. Pyruvate kinase isolated from rabbit muscle was purchased from Sigma-Aldrich. Pyruvate kinase was assayed indirectly by quantifying ADP production formed in the reaction ATP+pyruvate to ADP+phosphoenolpyruvate. Inhibitors were added to the reaction mixture immediately before the reaction was started by the addition of ATP.

[2] = test system: MCF7 (breast) cancer cell line; experiment: MTT assay, inhibition of cell proliferation, MCF7; type: cell-based; conditions: MCF7, 72 hours
Method: (§1) The compounds of the invention were tested for their inhibition potential of cell proliferation. MCF7 (breast) and SF268 (glioma) cancer cell lines were incubated with different concentrations of the compounds and their viability was assessed using an MTT (3-(4,5-dimethylthiazol-2-yl)-2,5-diphenyltetrazolium bromide) assay. The MTT assay is well known in the art (see for example Slater et al., Biochim. Biophys. Acta 77 (1963) 383). The cells were incubated with a given inhibitor for 72 hours and assayed.

[3] = test system: SF268 (glioma) cancer cell line; experiment: MTT assay, inhibition of cell proliferation, SF268; type: cell-based; conditions: SF268, 72 hours
Method: as §1

T1 sequence (P11974 whole entry): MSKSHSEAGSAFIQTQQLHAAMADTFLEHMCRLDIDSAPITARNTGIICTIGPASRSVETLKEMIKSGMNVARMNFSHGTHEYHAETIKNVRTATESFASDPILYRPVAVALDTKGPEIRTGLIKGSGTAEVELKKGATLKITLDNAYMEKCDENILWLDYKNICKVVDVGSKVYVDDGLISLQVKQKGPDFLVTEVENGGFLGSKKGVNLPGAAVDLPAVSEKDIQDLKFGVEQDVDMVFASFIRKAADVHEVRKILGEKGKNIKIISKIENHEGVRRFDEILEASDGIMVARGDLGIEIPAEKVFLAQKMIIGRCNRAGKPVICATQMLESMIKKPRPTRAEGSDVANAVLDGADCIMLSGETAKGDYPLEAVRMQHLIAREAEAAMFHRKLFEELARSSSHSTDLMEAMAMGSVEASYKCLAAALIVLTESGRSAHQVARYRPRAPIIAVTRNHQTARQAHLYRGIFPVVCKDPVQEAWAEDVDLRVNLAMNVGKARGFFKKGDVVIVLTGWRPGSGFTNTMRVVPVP

`O=C(CBr)P(=O)(O)O` [BOEPA] showed an inhibition at 0.1 µM [1] of 0%, an inhibition at 1 µM [1] of 0% and an inhibition at 10 µM [1] of 0%. The “Inhibition of cell proliferation” value [2] was “inhibited cell proliferation”, the “% (A-Blank relative to control)” value ([2]; 10 uM) was 93.37% and the “A-Blank (Average-Blank) O.D. at 570 nm” value ([2]; 10 uM) was 0.7642 O.D. The “Average O.D. reading at 570 nm” value ([2]; 10 uM) was 0.8518 O.D, the “% (A-Blank relative to control)” value ([2]; 25 uM) was 93.769% and the “A-Blank (Average-Blank) O.D. at 570 nm” value ([2]; 25 uM) was 0.7675 O.D. For the same compound, the “Average O.D. reading at 570 nm” value ([2]; 25 uM) was 0.855 O.D, the “% (A-Blank relative to control)” value ([2]; 50 uM) was 91.142% and the “A-Blank (Average-Blank) O.D. at 570 nm” value ([2]; 50 uM) was 0.746 O.D. For the same compound, the “Average O.D. reading at 570 nm” value ([2]; 50 uM) was 0.8335 O.D, the “% (A-Blank relative to control)” value ([2]; 75 uM) was 93.28% and the “A-Blank (Average-Blank) O.D. at 570 nm” value ([2]; 75 uM) was 0.7635 O.D. The “Average O.D. reading at 570 nm” value ([2]; 75 uM) was 0.851 O.D, the “% (A-Blank relative to control)” value ([2]; 100 uM) was 91.57% and the “A-Blank (Average-Blank) O.D. at 570 nm” value ([2]; 100 uM) was 0.7495 O.D. The “Average O.D. reading at 570 nm” value ([2]; 100 uM) was 0.837 O.D, the “% (A-Blank relative to control)” value ([2]; 200 uM) was 89.249% and the “A-Blank (Average-Blank) O.D. at 570 nm” value ([2]; 200 uM) was 0.7305 O.D. For the same compound, the “Average O.D. reading at 570 nm” value ([2]; 200 uM) was 0.818 O.D, the “% (A-Blank relative to control)” value ([2]; 300 uM) was 56.2004% and the “A-Blank (Average-Blank) O.D. at 570 nm” value ([2]; 300 uM) was 0.46 O.D. The “Average O.D. reading at 570 nm” value ([2]; 300 uM) was 0.5475 O.D, the “% (A-Blank relative to control)” value ([2]; 500 uM) was 36.68% and the “A-Blank (Average-Blank) O.D. at 570 nm” value ([2]; 500 uM) was 0.3003 O.D. For the same compound, the “Average O.D. reading at 570 nm” value ([2]; 500 uM) was 0.3877 O.D, the “Inhibition of cell proliferation” value [3] was “inhibited cell proliferation” and the “% (A-Blank relative to control)” value ([3]; 10 uM) was 101.2806%. The “A-Blank (Average-Blank) O.D. at 570 nm” value ([3]; 10 uM) was 0.692 O.D, the “Average O.D. reading at 570 nm” value ([3]; 10 uM) was 0.7792 O.D and the “% (A-Blank relative to control)” value ([3]; 25 uM) was 99.49%. For the same compound, the “A-Blank (Average-Blank) O.D. at 570 nm” value ([3]; 25 uM) was 0.68 O.D, the “Average O.D. reading at 570 nm” value ([3]; 25 uM) was 0.767 O.D and the “% (A-Blank relative to control)” value ([3]; 50 uM) was 100.8%. The “A-Blank (Average-Blank) O.D. at 570 nm” value ([3]; 50 uM) was 0.689 O.D, the “Average O.D. reading at 570 nm” value ([3]; 50 uM) was 0.776 O.D and the “% (A-Blank relative to control)” value ([3]; 75 uM) was 96.52%. For the same compound, the “A-Blank (Average-Blank) O.D. at 570 nm” value ([3]; 75 uM) was 0.66 O.D, the “Average O.D. reading at 570 nm” value ([3]; 75 uM) was 0.747 O.D and the “% (A-Blank relative to control)” value ([3]; 100 uM) was 90.45%. The “A-Blank (Average-Blank) O.D. at 570 nm” value ([3]; 100 uM) was 0.618 O.D, the “Average O.D. reading at 570 nm” value ([3]; 100 uM) was 0.705 O.D and the “% (A-Blank relative to control)” value ([3]; 200 uM) was 53.055%. For the same compound, the “A-Blank (Average-Blank) O.D. at 570 nm” value ([3]; 200 uM) was 0.3625 O.D, the “Average O.D. reading at 570 nm” value ([3]; 200 uM) was 0.4498 O.D and the “% (A-Blank relative to control)” value ([3]; 300 uM) was 12.221%. For the same compound, the “A-Blank (Average-Blank) O.D. at 570 nm” value ([3]; 300 uM) was 0.0835 O.D, the “Average O.D. reading at 570 nm” value ([3]; 300 uM) was 0.1708 O.D and the “% (A-Blank relative to control)” value ([3]; 500 uM) was 5.196%. For the same compound, the “A-Blank (Average-Blank) O.D. at 570 nm” value ([3]; 500 uM) was 0.0355 O.D and the “Average O.D. reading at 570 nm” value ([3]; 500 uM) was 0.1227 O.D.

`O=C(O)C(=O)CBr` [BrPyA, 3-bromopyruvic acid, reference compound] showed an inhibition at 100 µM ([1]; Concentration 0.1 mM) of 0%, an inhibition at 1000 µM ([1]; Concentration 1 mM) of 0% and an inhibition at 10000 µM ([1]; Concentration 10 mM) of 10.9%. It also gave an inhibition at 100000 µM ([1]; Concentration 100 mM) of 57.8%.
